Test results from PMC4829254, “Complex Minigene Library Vaccination for Discovery of Pre-Erythrocytic Plasmodium T Cell Antigens” (PLoS ONE, 2016).
Peptide text beside a SMILES is read from it.

Biological target: T1, H2-K^d (Mus musculus, UniProt P01902)
T1 construct: expressed in transfected cells; host or cells: RMA/S lymphoma cell line expressing H2-K^d
T1 sequence (P01902 22-368): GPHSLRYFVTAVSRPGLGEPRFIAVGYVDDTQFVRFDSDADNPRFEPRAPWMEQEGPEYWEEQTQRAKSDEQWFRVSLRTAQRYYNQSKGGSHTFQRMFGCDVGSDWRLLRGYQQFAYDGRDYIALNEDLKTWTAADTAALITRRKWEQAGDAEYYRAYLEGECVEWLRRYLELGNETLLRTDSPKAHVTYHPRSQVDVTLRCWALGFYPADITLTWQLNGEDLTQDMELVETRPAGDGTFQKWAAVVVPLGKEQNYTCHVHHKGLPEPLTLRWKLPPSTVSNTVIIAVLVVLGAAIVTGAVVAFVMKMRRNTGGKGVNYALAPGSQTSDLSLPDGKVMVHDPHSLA
T1 sequence (P01887 21-119 partner): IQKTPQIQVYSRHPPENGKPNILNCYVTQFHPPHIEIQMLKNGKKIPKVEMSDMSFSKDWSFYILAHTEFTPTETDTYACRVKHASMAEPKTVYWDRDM
Assay: MHC binding assay (RMA/S cells expressing H2-K^d)
Design: species or system murine
Settings: H2-K^d stabilization, read-out: apparent Kd
Protocol: RMA/S cells expressing H2-K^d were used to test MHC binding as described.
The affinity of SYQKSINNI for H2-K^d was determined using an RMA/S lymphoma cell line expressing H2-Kd as previously described.
Fig 4 The PyMDH epitope binds to murine H2-K^d. RMA/S cells expressing H2-K^d were incubated with peptides for PyCSP (squares), PyMDH (circles) or non-specific peptide. PyCSP and PyMDH peptides stabilized H2-K^d, indicative of specific MHC binding. Error bars indicate the 95% confidence interval.

SMILES	Kd
CC[C@H](C)[C@H](NC(=O)[C@H](CC(N)=O)NC(=O)[C@H](CC(N)=O)NC(=O)[C@@H](NC(=O)[C@H](CO)NC(=O)[C@H](CCCCN)NC(=O)[C@H](CCC(N)=O)NC(=O)[C@H](Cc1ccc(O)cc1)NC(=O)[C@@H](N)CO)[C@@H](C)CC)C(=O)O [PyMDH peptide] (H-SYQKSINNI-OH)	0.0116 µM
CC[C@H](C)[C@H](NC(=O)[C@H](CCC(N)=O)NC(=O)[C@H](CCC(=O)O)NC(=O)[C@H](C)NC(=O)[C@H](CO)NC(=O)[C@@H]1CCCN1C(=O)[C@@H](NC(=O)[C@H](Cc1ccc(O)cc1)NC(=O)[C@@H](N)CO)C(C)C)C(=O)O [PyCSP peptide] (H-SYVPSAEQI-OH)	0.0096 µM
